How the values were obtained:
[1] = tested on: E. coli BT3/pACYCSP+pYAGY strain; test: Growth of E. coli BT3/pACYCSP+pYAGY with herbicidal compound; format: cell-based, Escherichia coli; conditions: 1 ppm, 18 hours culture, Table 15
[2] = tested on: tobacco bearing the introduced Arabidopsis thaliana PPO(A220V) gene; test: Leaf piece chlorophyll test, tobacco with Arabidopsis thaliana PPO(A220V) gene; format: in vivo; conditions: 2.0 ppm, 7 days in a light place, treated vs untreated leaf pieces, Example 37
From the text: Tobacco leaf pieces cultured sterilely were infected with the Agrobacterium strain and, according to the same manner as described in Example 5, tobacco bearing the introduced Arabidopsis thaliana PPO(A220V) gene was obtained.
Leaves of the tobacco bearing the introduced both Arabidopsis thaliana PPO(A220V) gene and gene encoding the variant tobacco chelatase subunit produced in Example 36, those bearing the introduced Arabidopsis thaliana PPO(A220V) gene produced in Example 35, and the control recombinant tobacco leaves produced in Example 5were collected, and each leaf was divided into the right and left equivalent pieces along the main vein. One of the pieces was treated with an aqueous solution containing 2.0 ppm PPO inhibitory-type herbicidal compound of Structure 8, while the other piece was not treated with the compound. These leaf pieces were placed on MS medium containing 0.8% agar and allowed to stand at room temperature for 7 days in a light place. Then, each leaf piece was ground in 5 ml of 80% aqueous acetone solution in a mortar with a pestle to extract chlorophyll. The extract was diluted 10 times with 80% aqueous acetone solution and the absorbance was measured at 750 nm, 663 nm and 645 nm to calculate the total chlorophyll content according to the method described by Macknney G., J. Biol. Chem. (1941) 140, p 315. […]

[3] = tested on: E. coli BT3/pACYCSP+pHASYS4 strain; test: Growth of E. coli BT3/pACYCSP+pHASYS4 with herbicidal compound; format: cell-based, Escherichia coli; conditions: 1 ppm, 18 hours culture, Table 16
From the text: According to the description of Gibson, L. C. D. et al., Proc. Natl. Acad. Sci. USA, 92; p 1941 (1995), the DNA fragment containing bchH gene prepared in Example 1 was digested with the restriction enzymes NdeI and BglII. The resultant DNA fragment was inserted between NdeI restriction site and BamHI restriction site of expression vector pET11a (manufactured by Stratagene) to obtain plasmid pETBCH (FIG. 1). This plasmid pETBCH was introduced into E. coli BL21(DE3) strain competent cells (manufactured by Stratagene) according to the manual attached to the competent cells to obtain E. coli BL21(DE3)/pETBCH strain. The strain was inoculated into 1.5 ml LB liquid culture medium (1% tryptone, 0.5% yeast extract, 0.5% NaCl) containing 100 μg/ml ampicillin in a tube (14×10 mm), and the tube was covered with aluminum foil (hereinafter referred to as dark conditions), cultured with shaking at 37° C. under light of fluorescent lamp (about 8000 lux). When the absorbance at 600 nm of the liquid culture medium became about 0.6, isopropyl β-D-thiogalactopyranoside (IPTG) was added to the liquid culture medium so that the final concentration was 0.4 mM, and the culture was continued for about additional 20 hours. […]

[4] = tested on: E. coli BT3/pACYCSP+pHASYS8 strain; test: Growth of E. coli BT3/pACYCSP+pHASYS8 with herbicidal compound; format: cell-based, Escherichia coli; conditions: 1 ppm, 18 hours culture, Table 16

C#CCOc1cc(N2C(=O)C3=C(CCCC3)C2=O)c(F)cc1Cl [Structure 8]
Relative absorbance ([1]; in the dark): 0.99 | Relative absorbance ([1]; in the light): 0.48 | resistant level [2]: 12.2% | Relative absorbance ([3]; in the dark): 1.0 | Relative absorbance ([3]; in the light): 0.91 | Relative absorbance ([4]; in the dark): 1.0 | Relative absorbance ([4]; in the light): 0.57
